From patent US20240000698A1, “COMPOSITION COMPRISING FERMENTED EXTRACT FROM PINE FOR PREVENTING SKIN WRINKLE, IMPROVING SKIN BARRIER FUNCTION, PREVENTING HAIR LOSS, PROMOTING HAIR GROWTH AND IMPROVING HAIR HEALTH AND METHOD FOR MANUFACTURING THE SAME” (TaedamBio Co., Ltd., priority 2022, published 2024)

Experiment: DPPH free radical scavenging activity measurement test
Assay type: biochemical
Procedure: The free radical scavenging activity measurement test was conducted using 2,2-diphenyl-1-picrylhydrazyl (DPPH) to evaluate the free radical scavenging activity contained in active oxygen, which is one of the antioxidant effects on the fermented pine tree extract obtained by the above method (testing institution: Korea Testing and Research Institute, test number: TNK-2022-000242). The fermented pine extract was prepared at 5, 10, 20, and 30% concentrations using ethanol, and as a positive control material, L-Ascorbic acid was weighed, and was prepared at concentrations of 0.0005, 0.001, 0.0015, and 0.002% using distilled water. Ethanol was used to prepare DPPH at concentrations of 0.2 mM. 100 μL of the preparations for each concentration were dispensed into a 96-well plate, 0.2 mM DPPH and 100 μL of Ethanol were added, and reacted at room temperature for 30 minutes in a light-shielding state, and then absorbance was measured at 517 nm wavelength. The DPPH free radical scavenging activity (%) was calculated using the following formula. Each experimental result was measured three times to calculate the mean and standard deviation, and the confidence interval was set at 95%. [formula] [formula]

In the case of `O=C1O[C@H]([C@@H](O)CO)C(O)=C1O` [positive control substance, L-Ascorbic acid], the “IC50 (concentration representing 50% activity)” value (DPPH free radical scavenging) is reported as 0.0013%, the “DPPH free radical scavenging activity” value (positive control 0.0015% in distilled water) is reported as 57.25% and the “DPPH free radical scavenging activity” value (positive control 0.002% in distilled water) is reported as 77.39%.
